Laboratory results taken from patent publication US20100254965A1, “Adenosine Signaling in Diagnosis, Treatment, and Prevention of Priapism and Erectile Dysfunction” (BOARD OF REGENTS ,THE UNIVERSITY OF TEXAS SYSTEM, priority 2006, published 2010).

How the values were obtained:
[1] = system: corpus cavernosal strips (CCS); test: EFS-induced cAMP in CCS of ADA+ and ADA-/- mice; format: cell-based, mouse; conditions: CCS of either ADA-/- or ADA+ mice, EFS 5V 30 Hz; MRS1706 (10 nM), ZM241385 (50 nM), L-NAME (100 μM)
Protocol: FIG. 19. EFS leads to increased cAMP and cGMP production via A2BR in ADA-deficient mice. (a-b) Corpus cavernosal strips (CCS) of the ADA−/− and ADA+ mice were isolated and treated with 10 μM phenylephrine (PE) to induce precontraction. Then CCS were treated with MRS1706 (10 nM), ZM241385 (50 nM) or L-NAME (100 μM) prior to electrical field stimulation (EFS) at 5V and 30 Hz. 60 second after nerve stimulation, the CCS were quickly frozen and cellular cAMP (a) and cGMP (b) were measured by using commercial enzyme immunoassay kit (Amersham Pharmacia). N=4. Data are expressed as mean±SE. *p<0.05, ADA deficient mice versus the control; **p<0.05, CCS of ADA-deficient mice with MRS1706 and/or L-NAME treatment versus CCS of ADA-deficient mice without treatment; ***p<0.05, CCS of the control mice with MRS1706 and/or L-NAME treatment versus CCS of the control mice without treatment.
Function experiments. […] The contractility of each isolated corpus cavernosum smooth muscle cells (CCSM) strip was measured using an isometric force transducer (AD Instrument Inc., Georgia, Vt., USA). […] The contractile responses of the strips were analysed by adding 10 μM phenylephrine to the bath, and force changes were recorded in response to drug application and to electrical field stimulation. […]

[2] = system: multiple animal models, including humans; conditions: intracavernous injection, multiple animal models, including humans; cited from earlier work

SMILES | EFS-increased cAMP levels were blocked [1] | tumescence and penile erection [2]
CCCn1c(=O)c2[nH]c(-c3ccc(OCC(=O)Nc4ccc(C(C)=O)cc4)cc3)nc2n(CCC)c1=O [MRS1706] | completely blocked | –
Nc1ncnc2c1ncn2[C@@H]1O[C@H](CO)[C@@H](O)[C@H]1O [adenosine] | – | resulted in tumescence and penile erection
